Reference: patent US20240336573A1, “COMPOUND FOR THE TREATMENT AND PROPHYLAXIS OF INFECTIOUS DISEASES” (Eberhard Karls Universität Tübingen Medizinische Fakultät, priority 2021, published 2024)

How the values were obtained:
SurA [1] = biological target: T1, SurA (Escherichia coli, UniProt P0ABZ6); assay: Microscale thermophoresis at the ELF (O1); format: binding, E. coli; set-up: key to MST score: 1 = binder; 6 = non-binder; settings: for MST score: score 1-6
Description: His-tagged SurA was labeled with the Monolith His-Tag Labeling Kit RED-tris-NTA (Nanotemper) according to the manufacturer's instructions.
Microscale thermophoresis measurements at the ELF were performed as follows. Compounds were tested in 8-point curves at a top starting concentration of 100-0.39 μM. […] 12-point dose responses of reference compound were also set up and tested between runs. Final measurement conditions were 40 mM HEPES pH 7.4, 0.1% Pluronic-F127, 50 nM SurA with Monolith settings—40% excitation and 60% MST power. MST data (capillary scan and shape, initial fluorescence and MST traces) were analyzed and a score was given to each compound.

SurA [2] = biological target: T1, SurA; assay: Luciferase-based SurA activity assay (primary assay, in-house); format: biochemical, E. coli; set-up: key to primary assay SurA: SurA inhibition = +; no SurA inhibition = 0; settings: for primary assay SurA: shelf derivatives evaluation
Text: The biological function of SurA is to bind and to keep outer membrane proteins that have reached the periplasm in an unfolded but folding-competent state. The inventors' assay is based on this interaction and uses firefly Luciferase (fLuc) as a non-native substrate. […] This is exploited in the assay (FIG. 3). The loss of tertiary structure of fLuc leads to the exposure of binding sites for SurA. It is known that SurA binds selectively to a special group of substrates. These substrates have in common the specific patterns of hydrophobic amino acids that are highly enriched in the beta strands of integral outer membrane proteins. These motifs are present in OMPs of all Gram-negative bacteria and in fLuc as well. Upon mild heat treatment of fLuc and its subsequent partial unfolding, fLuc is accepted as a substrate by SurA. Of note, these intermediates served as reporter substrates to determine the activity of a […] folding chaperone. […] This interaction remains stable upon temperature reduction. Next, the temperature of the assay is reduced to room temperature and luciferase activity is subsequently measured by addition of Luciferin and ATP. In conditions without SurA, fLuc will refold into its active conformation resulting in a luminescence signal.
In short, the Luciferase based SurA activity assay was performed in SurA Activity Assay Buffer (40 mM HEPES pH 7.4, 20 mM MgSO4, 0.5 g/I BSA). SurA aliquots were thawn at RT, activated by mild heat treatment and cooled down to RT for 10 min. […] Solution A containing 10 mM ATP as well as 0.3 mM Luciferin (Promega Beetle Luciferin, Potassium Salt) in water was prepared. Luciferase working solution was prepared by diluting 1 ml Luciferase working stock (100 nM) with 9 ml assay buffer. 33 μl of the protein solution were added to every 2nd row of a well of a 384-well PS, white, flat bottom plate. […] Subsequently, 2 μl of compound in DMSO were added in quadruplicates (4 wells each of protein solution and buffer controls). These compound solutions could contain either various compounds or different dilutions of the same compound allowing screening inhibitor activity in a dose dependent manner. After compound addition, plates were incubated 15 min at RT. After this incubation, 5 μl of Luciferase working solution were added to each well. Next, the plates were incubated 25 min at 38° C. to partially unfold the Luciferase. Subsequently, the assay plate was cooled for 5 min at 4° C. followed by 10 min incubation at RT prior to luminescence measurement. Luminescence was measured in a TECAN infinite M200 pro plate reader for each well individually after injection of 10 μl Solution A.

SurA [3] = biological target: T1, SurA; assay: nanoDSF thermal shift assay (Prometheus); format: binding, E. coli; set-up: key to nanoDSF pH 5 Ti#1 / nanoDSF pH 5 Ti#2 / nanoDSF pH 7.4 Ti#1 / nanoDSF pH 7.4 Ti#2: An increase of the inflection points in the nanoDSF experiments is indicated by (+); a decrease by (−); no changes with (none); ambiguity with a question mark (?); settings: for nanoDSF pH 7.4 Ti#1 / nanoDSF pH 7.4 Ti#2: 40 mM HEPES pH 7.4, 150 NaCl; for nanoDSF pH 5 Ti#1 / nanoDSF pH 5 Ti#2: 50 mM HAc pH 5; for Thermal stability of SurA as detected by nanoDSF: resynthesized compounds
Description: To this end, 5 μl of a 2 mM compound solution in DMSO were mixed with 95 μl of a 20 μM SurA solution. Technical triplicate measurements were performed on a Prometheus system (NanoTemper).

E. coli ATCC 25922 = assay: Sensitizer MIC assay (vancomycin); format: cell-based; settings: compound concentration of 100 μM
Description: To test for the sensitizer properties of the compounds, the inventors then performed a sensitizer MIC assay. To this end, E. coli BW25113, E. coli JW2496-3, and E. coli ATCC 25922 inocula were prepared as described above. Each well of a 96-well plate was prefilled with a fixed compound concentration of 100 μM and a dilution series of Vancomycin ranging from […]. A sensitizing effect was defined as reduction of the MIC value of Vancomycin of the respective test strain.

luciferase = luciferase (Photinus pyralis, UniProt P08659); assay: Primary assay buffer control: interference with Luciferase per se; format: biochemical, firefly; set-up: key: no influence on Luc activity = 0; enhances Luc activity = +; reduces Luc activity = −
Chain of luciferase (P08659 whole entry): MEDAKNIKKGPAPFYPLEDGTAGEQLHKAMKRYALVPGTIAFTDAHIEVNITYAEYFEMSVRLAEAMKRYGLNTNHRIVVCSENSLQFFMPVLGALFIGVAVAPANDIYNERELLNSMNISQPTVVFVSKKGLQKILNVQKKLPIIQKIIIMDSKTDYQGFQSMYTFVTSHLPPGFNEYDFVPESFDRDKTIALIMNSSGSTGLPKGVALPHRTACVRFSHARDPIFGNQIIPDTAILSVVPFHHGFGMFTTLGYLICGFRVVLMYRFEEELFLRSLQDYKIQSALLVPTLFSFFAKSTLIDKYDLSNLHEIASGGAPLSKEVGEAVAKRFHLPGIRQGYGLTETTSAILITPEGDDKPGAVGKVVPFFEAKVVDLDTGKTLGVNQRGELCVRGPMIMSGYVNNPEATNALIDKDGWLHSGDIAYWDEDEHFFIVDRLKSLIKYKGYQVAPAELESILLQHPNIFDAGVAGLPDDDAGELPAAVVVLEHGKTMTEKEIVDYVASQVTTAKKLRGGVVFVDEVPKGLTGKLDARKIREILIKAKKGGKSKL
Description: In short, the Luciferase based SurA activity assay was performed in SurA Activity Assay Buffer (40 mM HEPES pH 7.4, 20 mM MgSO4, 0.5 g/I BSA). SurA aliquots were thawn at RT, activated by mild heat treatment and cooled down to RT for 10 min. SurA concentration was adjusted to 1.6 μM in Activity Assay Buffer (protein solution). Solution A containing 10 mM ATP as well as 0.3 mM Luciferin (Promega Beetle Luciferin, Potassium Salt) in water was prepared. Luciferase working solution was prepared by diluting 1 ml Luciferase working stock (100 nM) with 9 ml assay buffer. 33 μl of the protein solution were added to every 2nd row of a well of a 384-well PS, white, flat bottom plate. […] Subsequently, 2 μl of compound in DMSO were added in quadruplicates (4 wells each of protein solution and buffer controls). These compound solutions could contain either various compounds or different dilutions of the same compound allowing screening inhibitor activity in a dose dependent manner. After compound addition, plates were incubated 15 min at RT. After this incubation, 5 μl of Luciferase working solution were added to each well. […] Subsequently, the assay plate was cooled for 5 min at 4° C. followed by 10 min incubation at RT prior to luminescence measurement. Luminescence was measured in a TECAN infinite M200 pro plate reader for each well individually after injection of 10 μl Solution A.

T1 sequence (P0ABZ6 21-428): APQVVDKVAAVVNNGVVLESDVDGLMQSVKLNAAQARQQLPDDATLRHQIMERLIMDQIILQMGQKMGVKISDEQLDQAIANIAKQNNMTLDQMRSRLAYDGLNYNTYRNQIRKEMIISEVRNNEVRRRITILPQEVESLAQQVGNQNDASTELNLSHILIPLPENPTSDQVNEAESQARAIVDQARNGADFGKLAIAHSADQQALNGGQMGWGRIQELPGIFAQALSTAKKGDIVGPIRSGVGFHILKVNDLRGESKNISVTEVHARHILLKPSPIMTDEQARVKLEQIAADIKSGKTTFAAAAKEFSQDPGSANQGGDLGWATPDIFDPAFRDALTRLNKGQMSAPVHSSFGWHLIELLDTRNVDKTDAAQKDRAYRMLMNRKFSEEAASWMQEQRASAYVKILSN

| Compound | IC50 (SurA [1]; 8-point curves 100-0.39 μM, 50 nM SurA, read-out: MST pIC50 (converted)) [µM] | MST score (SurA [1]) | Primary Assay ICmax (SurA [2]; QHL-10 derivatives, dose response up to 125 μM, n/d: no signal detected) [µM] | Primary Assay Amplitude (SurA [2]; amplitude of signal, n/d: no signal detected) | primary assay SurA (SurA [2]) | nanoDSF pH 7.4 Ti#1 (SurA [3]) | nanoDSF pH 7.4 Ti#2 (SurA [3]) | nanoDSF pH 5 Ti#1 (SurA [3]) | nanoDSF pH 5 Ti#2 (SurA [3]) | Thermal stability of SurA as detected by nanoDSF (SurA [3]) | MIC (reduction of vancomycin MIC) (E. coli ATCC 25922) | primary assay Luciferase (luciferase) |
| --- | --- | --- | --- | --- | --- | --- | --- | --- | --- | --- | --- | --- |
| NC(=O)c1nc(Cc2ccc(OCC(=O)O)cc2)[nH]c1NC(=O)c1ccc(-c2ccccc2)cc1 [Compound 2a, 2-(4-((5-([1,1′-biphenyl]-4-carboxamido)-4-carbamoyl-1H-imidazol-2-yl)methyl)phenoxy)acetic acid] | 39.8 | 1 | 4 | high | + | none | − | + | − | affected the thermal stability of SurA | yes (reduction of the MIC for vancomycin of the E. coli ATCC 25922 strain below 256 mg/l at a compound concentration of 100 μM (yes/no)) | − |
| CN(C)c1ccc(-c2nc3cc(NC(=O)Cn4cc5ccccc5n4)ccc3[nH]2)cc1 [QHL-24] |  | 1 |  |  | + | none | − | none | + | affected the thermal stability of SurA | yes (reduction of the MIC for vancomycin of the E. coli ATCC 25922 strain below 256 mg/l at a compound concentration of 100 μM (yes/no)) | − |
